Data set [1] concerns Candida albicans. Description: Antifungal activity against Candida albicans ATCC 10231 assessed as reduction in fungal growth by CLSI protocol based broth microdilution method. The class given is functional. (In general: Broth dilution looks for growth in wells or tubes with falling amounts of substance.)
For the next data set, the system named is Cryptococcus neoformans. Description: Antifungal activity against Cryptococcus neoformans ATCC 32045 assessed as reduction in fungal growth by CLSI protocol based broth microdilution method. The class given is functional.
A further data set deals with Candida tropicalis. Description: Antifungal activity against Candida tropicalis ATCC 1369 assessed as reduction in fungal growth by CLSI protocol based broth microdilution method. It is filed as functional.
The subject of another data set is Aspergillus fumigatus. In words: Antifungal activity against Aspergillus fumigatus AS 3.3913 assessed as reduction in fungal growth by CLSI protocol based broth microdilution method. The class given is functional.
The next data set relates to Cell membrane. Description: Induction of cell membrane damage in Candida albicans ATCC 10231 at 2 to 4 times MIC by propidium iodide staining based fluorescence assay.
Data set [2] can be described thus: Cytotoxicity against human HUVEC cells assessed as reduction in cell viability by CCK-8 assay. The class given is toxicity, cell-based. A general note: Formazan colour is commonly taken as a measure of viable cells.
Data set [3] deals with Candida albicans. Description: Antifungal activity against Candida albicans ATCC 10231 assessed as resistance development by measuring increase in MIC at 0.5 ug/ml after 20 passages by CLSI protocol based broth microdilution method. Conditions: dose 0.5 µg/ml. It is filed as functional.
In data set [4] the test system is Candida albicans. In words: Fungistatic activity against Candida albicans ATCC 10231 assessed as reduction in fungal growth at 2 to 4 times MIC incubated for 36 hrs by Time kill assay. It is filed as functional, organism-based. Conditions: DDE = dose-dependent effect.
A short description of data set [5]: Selectivity index, ration of CC50 for cytotoxicity against human HUVEC cells to MIC for antifungal activity against Candida albicans ATCC 10231. The class given is toxicity, cell-based. To be noted: read-out: Selectivity Index.
Data set [6] deals with Candida albicans. In words: Antibiofilm activity against Candida albicans ATCC 10231 assessed as inhibition of biofilm viability by XTT reduction assay. It is filed as functional, organism-based.
A short description of data set [7]: Metabolic stability in mouse plasma assessed as parent compound remaining at 2 to 8 times. The class given is ADME, cell-free.
For data set [8], the system named is Candida albicans. In words: Fungistatic activity against Candida albicans ATCC 10231 assessed as reduction in fungal growth at 4 times MIC incubated for 12 hrs by Time kill assay. The class given is functional, organism-based.

This is an account of results in ChEMBL document CHEMBL5113473, “Synthesis and biological evaluation of new 2‑substituted‑4‑amino-quinolines and -quinazoline as potential antifungal agents” (Bioorg Med Chem Lett, 2022).

By MIC is commonly meant the smallest concentration in the dilution series that meets the test's criterion for growth inhibition. The term CC50 denotes the concentration giving 50% cytotoxicity.

≈ marks a conversion by molar mass, not a printed value. Calls of active or inactive are those of the source. A value given as a limit tells only on which side of the number the result lay.

Regarding `COc1ccc(-c2cc(Nc3ccc(C)cc3)c3ccccc3n2)cc1.Cl`, the MIC in the data set on Candida albicans [1] was 16 µg/mL; in the data set on Cryptococcus neoformans, 8 µg/mL; with Candida tropicalis, 16 µg/mL; in the data set on Aspergillus fumigatus, 8 µg/mL.
Regarding `Cc1ccc(Nc2cc(-c3ccc(F)cc3)nc3ccccc23)cc1.Cl`, the MIC with Candida albicans [1], in the data set with Cryptococcus neoformans, in the data set on Candida tropicalis and in the data set with Aspergillus fumigatus was over 512 µg/mL throughout.
`Cc1ccc(Nc2cc(-c3ccccc3Br)nc3ccccc23)cc1.Cl`: the MIC in the data set with Candida albicans [1] is over 512 µg/mL; in the data set with Cryptococcus neoformans, 8 µg/mL; in the data set with Candida tropicalis, 128 µg/mL; with Aspergillus fumigatus, 64 µg/mL.
Take `Cc1ccc(Nc2cc(-c3ccc(Cl)cc3)nc3ccccc23)cc1.Cl`: the MIC in the data set on Candida albicans [1] was 64 µg/mL; in the data set with Cryptococcus neoformans, 32 µg/mL; in the data set on Candida tropicalis, 128 µg/mL; in the data set on Aspergillus fumigatus, over 512 µg/mL.
Turning to `Cc1ccc(Nc2cc(C)nc3ccccc23)cc1.Cl`, the MIC amounted to 256 µg/mL in the data set with Candida albicans [1], 256 µg/mL in the data set on Cryptococcus neoformans, 256 µg/mL in the data set with Candida tropicalis and 128 µg/mL with Aspergillus fumigatus.
As for `Cc1ccc(Nc2nc(-c3ccccc3)nc3ccccc23)cc1.Cl`, the MIC in the data set on Candida albicans [1], with Cryptococcus neoformans, with Candida tropicalis and with Aspergillus fumigatus was over 512 µg/mL throughout.
As to `CCN(c1ccc(C)cc1)c1cc(-c2ccc(C)cc2)nc2ccccc12`, the MIC was over 512 µg/mL in the data set on Candida albicans [1], 128 µg/mL (≈ 363 µM) in the data set with Cryptococcus neoformans, over 512 µg/mL with Candida tropicalis and 512 µg/mL (≈ 1450 µM) in the data set on Aspergillus fumigatus.
In the case of `Cc1ccc(Nc2cc(-c3ccc4ccccc4c3)nc3ccccc23)cc1.Cl`, the MIC in the data set with Candida albicans [1] was determined as 128 µg/mL; with Cryptococcus neoformans, 4 µg/mL; in the data set on Candida tropicalis it was 256 µg/mL; with Aspergillus fumigatus it was 64 µg/mL.
As for `Cc1ccc(Nc2cc(C3CCCCC3)nc3ccccc23)cc1.Cl`, the MIC was 16 µg/mL in the data set with Candida albicans [1], 32 µg/mL in the data set with Cryptococcus neoformans, 16 µg/mL in the data set on Candida tropicalis and over 512 µg/mL with Aspergillus fumigatus.
Regarding `Cc1ccc(Nc2cc(-c3cccc(F)c3)nc3ccccc23)cc1.Cl`, the MIC in the data set on Candida albicans [1], in the data set on Cryptococcus neoformans, in the data set on Candida tropicalis and in the data set with Aspergillus fumigatus was over 512 µg/mL throughout.
In the case of `CCN(c1ccc(C)cc1)c1cc(-c2cccc(C)c2)nc2ccccc12`, the MIC with Candida albicans [1] is 512 µg/mL (≈ 1450 µM); with Cryptococcus neoformans, 64 µg/mL (≈ 182 µM); with Candida tropicalis, 512 µg/mL (≈ 1450 µM); in the data set with Aspergillus fumigatus it was 512 µg/mL (≈ 1450 µM).
As to `COc1ccccc1-c1cc(Nc2ccc(C)cc2)c2ccccc2n1.Cl`, the MIC with Candida albicans [1] was found to be 32 µg/mL; with Cryptococcus neoformans, 32 µg/mL; in the data set on Candida tropicalis, 32 µg/mL; in the data set with Aspergillus fumigatus it was 8 µg/mL.
For the compound `COc1cccc(-c2cc(Nc3ccc(C)cc3)c3ccccc3n2)c1.Cl`, the MIC with Candida albicans [1] came out at 8 µg/mL; with Cryptococcus neoformans it was 16 µg/mL; with Candida tropicalis it was 16 µg/mL; with Aspergillus fumigatus, 32 µg/mL.
As to `Cc1ccc(Nc2cc(-c3cccc(Cl)c3)nc3ccccc23)cc1.Cl`, the MIC in the data set on Candida albicans [1], in the data set with Cryptococcus neoformans, in the data set with Candida tropicalis and in the data set on Aspergillus fumigatus was over 512 µg/mL throughout.
As to `Cc1ccc(Nc2cc(-c3ccco3)nc3ccccc23)cc1.Cl`, the MIC in the data set on Candida albicans [1] was determined as 32 µg/mL; in the data set on Cryptococcus neoformans, 32 µg/mL; with Candida tropicalis, 16 µg/mL; in the data set with Aspergillus fumigatus, 128 µg/mL.
On to `Cc1ccc(Nc2cc(C3CCC3)nc3ccccc23)cc1.Cl`, for which the MIC in the data set on Candida albicans [1] turned out to be 128 µg/mL; with Cryptococcus neoformans, 64 µg/mL; in the data set with Candida tropicalis, 64 µg/mL; in the data set on Aspergillus fumigatus it was 64 µg/mL.
For the compound `Cc1ccc(Nc2cc(-c3ccccc3C)nc3ccccc23)cc1.Cl`, the MIC in the data set on Candida albicans [1] is 16 µg/mL; with Cryptococcus neoformans, 32 µg/mL; with Candida tropicalis, 32 µg/mL; in the data set with Aspergillus fumigatus, 32 µg/mL.
Take `Cc1ccc(Nc2cc(-c3ccccc3)nc3ccccc23)cc1.Cl`: the MIC in the data set with Candida albicans [1] is 32 µg/mL; in the data set with Cryptococcus neoformans, 32 µg/mL; in the data set on Candida tropicalis, 32 µg/mL; with Aspergillus fumigatus it was 64 µg/mL.
Consider `Cc1ccc(Nc2cc(-c3ccc(Br)cc3)nc3ccccc23)cc1.Cl`, for which the MIC with Candida albicans [1] was over 512 µg/mL; with Cryptococcus neoformans, 512 µg/mL; in the data set on Candida tropicalis, over 512 µg/mL; in the data set with Aspergillus fumigatus it was over 512 µg/mL.
Take `Cc1ccc(Nc2cc(-c3cccs3)nc3ccccc23)cc1.Cl`: the MIC in the data set with Candida albicans [1] is 8 µg/mL; in the data set with Cryptococcus neoformans it was 4 µg/mL; in the data set on Candida tropicalis, 16 µg/mL; with Aspergillus fumigatus it was 16 µg/mL.
With `Cc1ccc(Nc2cc(-c3cccc(Br)c3)nc3ccccc23)cc1.Cl`, the MIC in the data set with Candida albicans [1], with Cryptococcus neoformans, in the data set on Candida tropicalis and with Aspergillus fumigatus was over 512 µg/mL in each case.
Turning to `Cc1ccc(Nc2cc(-c3ccccc3Cl)nc3ccccc23)cc1.Cl`, the MIC with Candida albicans [1] was over 512 µg/mL; in the data set on Cryptococcus neoformans, 8 µg/mL; with Candida tropicalis, 64 µg/mL; in the data set with Aspergillus fumigatus it was 512 µg/mL.
Consider `Cc1ccc(Nc2cc(-c3ccc(C(C)(C)C)cc3)nc3ccccc23)cc1.Cl`, for which the MIC in the data set on Candida albicans [1] was 32 µg/mL; with Cryptococcus neoformans, 4 µg/mL; with Candida tropicalis it was 32 µg/mL; in the data set on Aspergillus fumigatus, 2 µg/mL.
As to `Cc1ccc(Nc2cc(-c3ccccc3F)nc3ccccc23)cc1.Cl`, the MIC with Candida albicans [1], with Cryptococcus neoformans, with Candida tropicalis and in the data set on Aspergillus fumigatus was over 512 µg/mL in each case.
Regarding `Cc1ccc(Nc2cc(C3CCCC3)nc3ccccc23)cc1.Cl`, the MIC in the data set on Candida albicans [1] worked out at 64 µg/mL; with Cryptococcus neoformans it was 64 µg/mL; in the data set on Candida tropicalis, 32 µg/mL; with Aspergillus fumigatus it was 16 µg/mL.
As for `Cc1ccc(Nc2cc(C3CC3)nc3ccccc23)cc1.Cl`, the MIC turned out to be 128 µg/mL in the data set on Candida albicans [1], 32 µg/mL with Cryptococcus neoformans, 128 µg/mL with Candida tropicalis and 512 µg/mL in the data set on Aspergillus fumigatus.
On to `Cc1ccc(Nc2cc(-c3cccnc3)nc3ccccc23)cc1.Cl`, for which the minimum inhibitory concentration (MIC) with Candida albicans [1] is 512 µg/mL; in the data set with Cryptococcus neoformans, over 512 µg/mL; with Candida tropicalis, 256 µg/mL; in the data set on Aspergillus fumigatus, over 512 µg/mL.
As to `CCN(c1ccc(C)cc1)c1cc(-c2ccccc2OC)nc2ccccc12`, the MIC in the data set on Candida albicans [1] is over 512 µg/mL; in the data set on Cryptococcus neoformans, 16 µg/mL (≈ 43.4 µM); with Candida tropicalis, 256 µg/mL (≈ 695 µM); in the data set with Aspergillus fumigatus, 256 µg/mL (≈ 695 µM).
Turning to `C[C@@H]1[C@H](O)[C@@H](C)/C=C/C=C/C=C/C=C/C=C/C=C/C=C/[C@H](O[C@@H]2O[C@H](C)[C@@H](O)[C@H](N)[C@@H]2O)C[C@@H]2O[C@](O)(C[C@@H](O)C[C@@H](O)[C@H](O)CC[C@@H](O)C[C@@H](O)CC(=O)O[C@H]1C)C[C@H](O)[C@H]2C(=O)O` [AMPHOTERICIN B], the MIC in the data set on Candida albicans [1] was 1 µg/mL (≈ 1.08 µM); in the data set with Cryptococcus neoformans it was 1 µg/mL (≈ 1.08 µM); with Candida albicans [3], 128 µg/mL (≈ 139 µM); in the data set on Candida tropicalis it was 4 µg/mL (≈ 4.33 µM); with Aspergillus fumigatus, over 512 µg/mL. Besides, the outcome in the data set with Cell membrane was Active. Further, the CC50 in data set [2] turned out to be 4.92 µM. The Activity result in the data set on Candida albicans [4] is “Dde”. Further, the selectivity ratio in data set [5] was determined as 4.55.
For `Cc1ccc(Nc2cc(-c3ccccc3C(F)(F)F)nc3ccccc23)cc1.Cl`, the minimum inhibitory concentration (MIC) with Candida albicans [1] was over 512 µg/mL; in the data set with Cryptococcus neoformans, 4 µg/mL; in the data set with Candida tropicalis, 256 µg/mL; with Aspergillus fumigatus, 128 µg/mL.
The like results for `Cc1ccc(Nc2cc(-c3ccc(C(F)(F)F)cc3)nc3ccccc23)cc1.Cl` were, in that order, over 512 µg/mL, 16 µg/mL, over 512 µg/mL and over 512 µg/mL.
On to `Cc1ccc(Nc2cc(-c3ccc(C)cc3)nc3ccccc23)cc1.Cl`, for which the MIC was 8 µg/mL in the data set with Candida albicans [1], 8 µg/mL in the data set with Cryptococcus neoformans, 16 µg/mL in the data set on Candida tropicalis and 4 µg/mL in the data set with Aspergillus fumigatus. The CC50 in data set [2] came out at 36 µM. In addition, the outcome in the data set on Candida albicans [6] and in the data set on Candida albicans [8] was Active. Further, in data set [7], the Stability stood at 80%. For the same compound, in the data set with Candida albicans [4], the Activity entry is “Dde”. Moreover, in data set [5], the selectivity ratio is 1.63.
With `Cc1ccc(Nc2ccnc3ccccc23)cc1.Cl`, the MIC turned out to be 256 µg/mL in the data set on Candida albicans [1], 256 µg/mL in the data set with Cryptococcus neoformans, 512 µg/mL in the data set with Candida tropicalis and 128 µg/mL in the data set with Aspergillus fumigatus.
`Cc1ccc(Nc2cc(-c3cccc(C(F)(F)F)c3)nc3ccccc23)cc1.Cl`: the MIC with Candida albicans [1] is over 512 µg/mL; in the data set with Cryptococcus neoformans, 512 µg/mL; in the data set on Candida tropicalis, 512 µg/mL; with Aspergillus fumigatus it was over 512 µg/mL.
For `Cc1ccc(Nc2cc(-c3cccc(C)c3)nc3ccccc23)cc1.Cl`, the MIC came to 8 µg/mL with Candida albicans [1], 128 µg/mL with Cryptococcus neoformans, 32 µg/mL with Candida tropicalis and 128 µg/mL in the data set with Aspergillus fumigatus.
